# Experimental data taken from patent US20050277627A1, “Colchinol derivatives as vascular damaging agents” (priority 2000, published 2005).
# pIC50: −log10 of the molar value.
# Columns and labels:
# [1] = test system: Hras5 tumours (NIH 3T3 fibroblasts transfected with Harvey ras, clone 5) in nude mice; assay: Hras5 necrosis model; format: in vivo; settings: 25 mg/kg; single dose, culled 24 hours after dosing; male nude mice
# Procedure: NIH 3T3 fibroblasts transfected with Harvey ras, clone 5, (Hras5 cells) were kept in continual passage in Dulbecco's modifed Eagles medium (DMEM) containing 10% foetal bovine serum (FBS) and 1% glutamine, at 37° C. in a humidified incubator gassed with 7.5% carbon dioxide and 92.5% […]. Cells were implanted subcutaneously into the left flank of male nude mice (8-10 weeks of age) at an inoculum of 2×10^5 cells/mouse. Tumours were measured using calipers and randomised into groups of 2-4 mice between days 9-14 after implant. Mice were dosed with compounds, either intravenously or intraperitoneally, once on day of randomisation and culled 24 hours after dosing. Compounds were dissolved in 20% hydroxypropyl beta cyclodextrin in physiological saline at pH 7 and dosed in a volume of 0.1 ml per 10 g body weight. Tumours were excised, weighed and placed in buffered formalin. Area of necrosis in individual tumours was assessed from a haematoxylin/eosin stained-slide by a pathologist and scored from 0, meaning no significant change, to 10, meaning 91-100% necrosis. The activity of examples 5 and 7 (described hereinafter) against tumour vasculature was measured by the fluorescent dye method described hereinabove. Example 1 scored 6.6 at 25 mg/kg.
# [2] = test system: tumour vasculature in CaNT tumour-bearing mice; assay: Activity against tumour vasculature measured by fluorescent dye (Hoechst 33342); format: in vivo; settings: 50 mg/kg intraperitoneally, dye injected 24 hours after drug treatment
# Procedure: (b) Activity Against Tumour Vasculature Measured by Fluorescent Dye
# Tumour functional vascular volume in CaNT tumour-bearing mice was measured using the fluorescent dye Hoechst 33342 according to the method of Smith et al (Brit. Jnl. Cancer 1988, 57, 247-253). Five animals were used in control and treated groups. The fluorescent dye was dissolved in saline at 6.25 mg/ml and injected intravenously at 10 mg/kg 24 hours after intraperitoneal drug treatment. One minute later, animals were killed and tumours excised and frozen; 10 μm sections were cut at 3 different levels and observed under UV illumination using an Olympus microscope equipped with epifluorescence. Blood vessels were identified by their fluorescent outlines and vascular volume was quantified using a point scoring system based on that described by Chalkley, (Jnl. Natl. Cancer Inst., 1943, 4, 47-53). All estimates were based on counting a minimum of 100 fields from sections cut at the 3 different levels.
# mammalian tubulin = settings: O. Boye et al Med. Chem. Res., 1991, 1, 142-150; read-out: IC50 in a tubulin polymerisation assay; cited from earlier work
Compound,"necrosis score (0 = no significant change, 10 = 91-100% necrosis) [1]",decrease in perfused vascular volume relative to control [2] [%],pIC50 (mammalian tubulin)
"COc1cc2c(c(OC)c1OC)-c1ccc(OC(=O)CCCC(=O)N3CCN(C(C)=O)CC3)cc1[C@@H](NC(C)=O)CC2 [Example 1, (5S)-5-Acetylamino-9,10,11-trimethoxy-6,7-dihydro-5H-dibenzo[a,c]cyclohepten-3-yl 5-(4-acetylpiperazin-1-yl)-5-oxopentanoate]",6.6,,
"COc1cc2c(c(OC)c1OC)-c1ccc(N)cc1C(NC(C)=O)CC2 (stereo not drawn) [N-[3-amino-9,10,11-trimethoxy-6,7-dihydro-5H-dibenzo[a,c]cyclohepten-5-yl]acetamide]",,88,4.24
